Test results from paper PMC12799524, “Putative new biomarkers for renal transporter-mediated drug-drug interactions: Characterization as substrates of organic cation transporter 2, multidrug and toxin extrusion protein 1, and other important drug transporters” (Drug Metabolism and Disposition, 2025).

Legend:
human OATP1B3 = target: T1, human OATP1B3 (Homo sapiens, UniProt Q9NPD5); assay: Uptake assay in HEK-OATP1B3 vs HEK-VC cells; assay type: in vitro ADME
T1 construct: expressed in transfected cells; host or cells: HEK293 (HEK-OATP1B3)
T1 sequence (Q9NPD5 1-702): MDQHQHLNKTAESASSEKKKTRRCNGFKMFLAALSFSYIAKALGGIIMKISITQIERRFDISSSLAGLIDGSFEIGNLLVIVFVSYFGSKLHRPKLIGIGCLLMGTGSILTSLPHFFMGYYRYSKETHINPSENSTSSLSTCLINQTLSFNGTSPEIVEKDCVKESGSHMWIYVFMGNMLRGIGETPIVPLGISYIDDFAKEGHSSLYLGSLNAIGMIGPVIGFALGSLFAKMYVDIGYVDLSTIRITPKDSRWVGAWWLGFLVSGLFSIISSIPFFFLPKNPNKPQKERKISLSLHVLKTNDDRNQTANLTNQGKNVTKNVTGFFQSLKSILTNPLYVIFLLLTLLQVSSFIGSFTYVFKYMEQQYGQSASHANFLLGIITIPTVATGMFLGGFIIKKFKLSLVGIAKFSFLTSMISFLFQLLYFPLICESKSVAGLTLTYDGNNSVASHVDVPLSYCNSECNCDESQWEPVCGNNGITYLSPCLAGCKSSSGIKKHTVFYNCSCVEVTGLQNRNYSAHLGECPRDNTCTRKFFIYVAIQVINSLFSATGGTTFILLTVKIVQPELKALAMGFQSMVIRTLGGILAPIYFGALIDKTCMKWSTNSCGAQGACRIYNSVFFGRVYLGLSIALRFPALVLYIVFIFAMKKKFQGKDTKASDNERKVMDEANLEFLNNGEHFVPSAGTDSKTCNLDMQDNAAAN
Experimental: (§1) Transport experiments were performed 48 hours after seeding.

human OAT1 = target: T2, human OAT1 (Homo sapiens, UniProt Q4U2R8); assay: Uptake assay in HEK-OAT1 vs HEK-VC cells; assay type: in vitro ADME
T2 construct: expressed in transfected cells; host or cells: HEK293 (HEK-OAT1), plasmid pOAT1.31 in pcDNA3.1/Hy(-)
T2 sequence (Q4U2R8 1-563): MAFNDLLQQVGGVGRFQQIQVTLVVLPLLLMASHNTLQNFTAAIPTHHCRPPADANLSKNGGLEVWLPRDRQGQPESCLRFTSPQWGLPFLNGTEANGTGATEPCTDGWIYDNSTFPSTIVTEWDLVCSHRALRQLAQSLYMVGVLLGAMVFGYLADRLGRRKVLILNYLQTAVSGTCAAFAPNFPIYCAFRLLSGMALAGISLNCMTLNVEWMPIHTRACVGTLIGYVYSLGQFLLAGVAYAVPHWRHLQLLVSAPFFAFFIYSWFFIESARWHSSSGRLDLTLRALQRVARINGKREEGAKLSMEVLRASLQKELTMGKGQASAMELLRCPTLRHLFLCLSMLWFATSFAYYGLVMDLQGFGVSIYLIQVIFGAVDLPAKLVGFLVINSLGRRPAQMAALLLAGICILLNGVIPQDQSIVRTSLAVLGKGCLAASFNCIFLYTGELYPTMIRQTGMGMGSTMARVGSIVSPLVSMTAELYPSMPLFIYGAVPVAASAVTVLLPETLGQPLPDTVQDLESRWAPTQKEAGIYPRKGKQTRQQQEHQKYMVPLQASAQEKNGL
Experimental: as §1

human OAT3 = target: T3, human OAT3 (Homo sapiens, UniProt Q8TCC7); assay: Uptake assay in HEK-OAT3 vs HEK-VC cells; settings: for In Vitro OAT3 (substrate class): HEK cells
T3 sequence (Q8TCC7 1-542): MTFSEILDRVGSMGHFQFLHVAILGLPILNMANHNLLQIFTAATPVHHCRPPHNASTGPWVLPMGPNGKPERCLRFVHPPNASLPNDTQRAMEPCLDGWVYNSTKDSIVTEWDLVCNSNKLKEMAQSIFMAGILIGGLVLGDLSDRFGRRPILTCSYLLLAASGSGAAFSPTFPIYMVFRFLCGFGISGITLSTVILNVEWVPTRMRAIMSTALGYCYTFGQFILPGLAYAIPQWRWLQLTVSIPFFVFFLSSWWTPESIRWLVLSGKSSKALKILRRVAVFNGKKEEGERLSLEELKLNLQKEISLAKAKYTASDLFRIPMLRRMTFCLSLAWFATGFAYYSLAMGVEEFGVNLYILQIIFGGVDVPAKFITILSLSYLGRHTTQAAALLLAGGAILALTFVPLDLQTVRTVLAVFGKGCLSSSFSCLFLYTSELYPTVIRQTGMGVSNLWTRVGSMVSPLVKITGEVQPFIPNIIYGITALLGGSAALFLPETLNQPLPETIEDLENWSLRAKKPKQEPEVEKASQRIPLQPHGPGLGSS
Experimental: Using both plasmids, stably transfected HEK cells overexpressing human OAT1 or OAT3 were established as described.[24] HEK cell clones with the highest expression of the SLC22A6 or the SLC22A8 mRNA were selected by quantitative reverse-transcription polymerase chain reaction and functionally characterized by standardized uptake assays using PAH (30 μM) or E3S (1 μM) as prototypic substrates for OAT1 (HEK-OAT1) or OAT3 (HEK-OAT3), respectively, as described below.
Uptake assays into HEK cells stably overexpressing transport proteins and their respective VC were performed as previously described with minor modifications.[19] In brief, cells were seeded in poly-D-lysine–coated (0.1 mg/mL) 12-well plates with a density of 7 × 10^5 cells per well. Twenty-four hours after seeding, cells were induced with 10 mM sodium butyrate to enhance protein expression. Transport experiments were performed 48 hours after seeding. Cells were washed once with transport buffer at 37 °C. Afterward, cells were incubated with transport buffer containing (putative) substrates at the desired concentration at 37 °C for 5 minutes. Inhibition of OCT2/MATE1-mediated transport was investigated by adding 50 μM of cimetidine to the above-mentioned transport buffer containing putative substrates. A mixture of unlabeled and [^3H]-labeled substrate was used for control experiments. The buffer for the transport experiments contained 142 mM NaCl, 5 mM KCl, 1 mM K2HPO4, 1.2 mM MgSO4, 1.5 mM CaCl2, 5 mM glucose, and 12.5 mM HEPES. The pH value was set to 7.3, except for HEK-MATE1 cells and their respective VC, in which pH was set to 8.0.
At the end of the incubation period, cells were put on ice, the transport buffer was removed, and cells were rinsed thrice with ice-cold 0.9% NaCl in water. Then, cells were lysed with 700 μL of an ice-cold mixture of MeOH and water (80:20) containing the recovery standards [^2H5]-tryptophan (1 μg/mL) and [^2H3]-N8-acetylspermidine (0.1 μg/mL). Subsequently, lysates were analyzed with liquid chromatography coupled to tandem mass spectrometry (LC-MS).
Data are presented in percentage of respective controls (which were set to 100%) or in pmol × mg protein^–1 × min^–1 for concentration-dependent transport as mean ± SEM. All results were normalized to the mean protein concentrations of the cell lysates in the respective control experiments.

[1] = cited from earlier work

Row | Structure (SMILES) | In Vitro OATP1B3 (substrate class) (human OATP1B3) | In Vitro OAT1 (substrate class) (human OAT1) | Uptake ratio in HEK-OAT3 cells compared to HEK-VC cells (human OAT3; 100 μM substrate, 5 minutes) | In Vitro OAT3 (substrate class) (human OAT3) | Urinary excretion ([1]; healthy subjects) | Uptake ratio in HEK-OAT3 cells compared to HEK-VC cells (human OAT3; 10 μM substrate, 5 minutes) | Uptake ratio for OAT3 (HEK-OAT3 vs HEK-VC) (human OAT3; 5 minutes) | Renal clearance ([1]; healthy volunteers, after oral administration of 400 mg tyramine) | Mean urinary excretion ([1]; healthy individuals)
1 | NCCc1c[nH]c2ccc(O)cc12 [Serotonin, serotonin] | - | - | 186% | 0 (significant uptake in HEK cells, but less than 300% of respective control cells or significant reduction of transcellular transport in Caco-2 cells, but reduction not below 50% of respective control without valspodar) | 0.21 ± 0.08 nmol/mL/mg creatinine |  |  |  | 
2 | C[N+](C)(C)CCCCC(=O)[O-] [5-Amino valeric acid betaine, 5-amino valeric acid betaine] | 0 (significant uptake in HEK cells, but less than 300% of respective control cells or significant reduction of transcellular transport in Caco-2 cells, but reduction not below 50% of respective control without valspodar) | - |  | - |  |  |  |  | 
3 | NCCc1ccc(O)cc1 [Tyramine, tyramine] | - | - |  | 0 (significant uptake in HEK cells, but less than 300% of respective control cells or significant reduction of transcellular transport in Caco-2 cells, but reduction not below 50% of respective control without valspodar) |  | 230% | above 2 fold | 260 mL/min | 
4 | Cn1cnc(CCN)c1 [1-Methylhistamine, 1-methylhistamine] | - | - |  | - |  |  |  |  | around 120 μg/g creatinine
